Results on 26 compounds are retold here after patent publication US8420820B2, “Pyrrolopyridinylpyrimidin-2-ylamine derivatives” (Merck Patent GmbH, priority 2008, dated 2013).

Experiment [1] concerns the target T1, PDK1 (Homo sapiens, UniProt O15530).
T1 construct: His6 (N)
Nature of the experiment: Test for the inhibition of PDK1 (flashplate, 33P-ATP). The class given is biochemical. The conditions noted are these: His6-PDK1 3.4 nM, 4 μM ATP, 30° C., 60 min. As for the experimental part: The experimental batches are carried out in a flashplate system with 384 wells/microtitration plate.
In each case, the PDK1 sample His6-PDK1(SEQ ID NO: 2)(1-50)(3.4 nM), the PDK1 substrate biotin-bA-bA-[…] (SEQ ID NO: 3) (400 nM), 4 μM ATP (with 0.2 μCi of ^33P-ATP/well) and the test substance in 50 μl of conventional experimental solution per well are incubated at 30° C. for 60 min. The test substances are employed in corresponding concentrations (if desired in a dilution series). The control is carried out without test substance. The reaction is stopped using standard methods and washed. The activity of the kinase is measured via the incorporated radioactivity in top count. In order to determine the non-specific kinase reaction (blank value), the experimental batches are carried out in the presence of 100 nM staurosporin.
The radioactivity (decompositions per minute) of the blank value (no use of test substance in the presence of staurosporin) is subtracted from all other radioactivity values. The controls (kinase activity without test substance) are set equal to 100 percent and all other radioactivity values (after subtracting the blank value) are expressed set in relation thereto (for example in % of the control).
IC50 values (50% inhibition) are determined with the aid of statistics programmes, such as, for example, RS1.

The subject of experiment [2] is PDK1 kinase activity in PC3 cells (phospho-T308-PKB). Nature of the experiment: Cellular testing of PDK1 kinase inhibitors in PC3 cells (Luminex, phospho-T308-PKB). The format is cell-based. The note with it: Homo sapiens, PC-3, 0.5 h, 30 min with test substance, serum-free, phospho-T308-PKB by Luminex, read-out: IC50 [PC3 P-PKB Thr308]. Here is the method:
Method for the Cellular Testing of PDK1 Kinase Inhibitors in PC3 Cells.
The cellular assay for the determination of the PDK1 kinase activity is carried out as a Luminex assay in the 96-well format. PC3 cells are sown at 20,000 cells per well in 100 μl of medium (45% of […]/45% of Ham's F12/10% of FCS) and incubated on the following day for 30 min with a serial dilution of the test substance (7 concentrations) under serum-free conditions. The cells are subsequently lysed using 90 μl of lysis buffer (20 mM tris/HCl pH 8.0, 150 mM NaCl, 1% of NP40, 10% of glycerol, 1% of phosphatase inhibitor I, 1% of phosphatase inhibitor II, 0.1% of protease inhibitor cocktail III, 0.01% of benzonase) per well, and the lysates are separated off from insoluble cell constituents by means of centrifugation through a 96-well filter plate (0.65 μm). The lysates are incubated overnight at 4° C. with shaking with Luminex beads to which an anti-total PKB antibody is coupled. The detection is carried out on the following day by addition of a phospho-T308-PKB antibody and a species-specific […] secondary antibody. The detection of phospho-T308-PKB is carried out by measurement in a Luminex100 instrument by determination of 100 events per cavity in a measurement time of 60 sec. As pharmacological blank, the signals obtained from cells which have been treated with 10 μM staurosporin are subtracted from all other batches. The control value used for maximum phosphorylation of PKB on T308 are the signals from cells which have only been treated with the solvent (0.3% of DMSO). The values of the batches treated with test substance are calculated therefrom as percentage of control, and IC50 values are determined by means of RS1.

T1 sequence (O15530 51-556): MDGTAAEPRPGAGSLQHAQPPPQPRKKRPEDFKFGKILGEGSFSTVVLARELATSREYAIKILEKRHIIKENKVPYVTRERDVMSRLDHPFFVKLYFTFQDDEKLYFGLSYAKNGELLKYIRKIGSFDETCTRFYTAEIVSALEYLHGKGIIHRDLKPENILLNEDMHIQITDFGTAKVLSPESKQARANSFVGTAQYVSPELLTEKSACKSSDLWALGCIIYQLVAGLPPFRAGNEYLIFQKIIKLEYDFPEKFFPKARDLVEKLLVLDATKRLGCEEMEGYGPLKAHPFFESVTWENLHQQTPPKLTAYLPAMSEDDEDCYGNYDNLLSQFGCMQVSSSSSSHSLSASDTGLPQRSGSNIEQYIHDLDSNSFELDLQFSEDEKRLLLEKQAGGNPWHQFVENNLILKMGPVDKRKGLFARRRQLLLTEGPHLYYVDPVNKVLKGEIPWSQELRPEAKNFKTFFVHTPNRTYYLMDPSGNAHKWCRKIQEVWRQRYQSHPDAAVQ

The IC50 is the point on the concentration scale where inhibition reaches its midpoint. Regarding `CCc1cc(-c2c[nH]c3ncc(-c4cnn(CCN(C)C)c4)cc23)nc(N)n1` [Compound A1, 4-{5-[1-(2-dimethylaminoethyl)-1H-pyrazol-4-yl]-1H-pyrrolo[2,3-b]pyridin-3-yl}-6-ethylpyrimidin-2-ylamine], the IC50 fell in the range of 10 to 1000 nM in experiment [1] and 10 to 20 µM in experiment [2].

Turning to `CCc1cc(-c2c[nH]c3ncc(-c4cnn(CC5CCNC5)c4)cc23)nc(N)n1` (stereo not drawn) [Compound A9], the IC50 in experiment [1] was 10 to 1000 nM; in experiment [2], 10 to 20 µM.

In the case of `CCc1cc(-c2c[nH]c3ncc(-c4ccc(N5CCNCC5)nc4)cc23)nc(N)n1` [Compound A10, 4-ethyl-6-[5-(6-piperazin-1-ylpyridin-3-yl)-1H-pyrrolo[2,3-b]pyridin-3-yl]pyrimidin-2-ylamine], the IC50 was in the range of 10 to 1000 nM in experiment [1] and 1 to 10 µM in experiment [2].

`CCc1cc(-c2c[nH]c3ncc(-c4cccc(C(=O)NCCN(C)C)c4)cc23)nc(N)n1` [Compound A11, 3-[3-(2-amino-6-ethylpyrimidin-4-yl)-1H-pyrrolo-[2,3-b]pyridin-5-yl]-N-(2-dimethylaminoethyl)benzamide]: the IC50 was in the range of 10 to 1000 nM in experiment [1] and 10 to 20 µM in experiment [2].

For the compound `CCc1cc(-c2c[nH]c3ncc(-c4cnn(CC(=O)N5CCN(C)CC5)c4)cc23)nc(N)n1` [Compound A29, 2-{4-[3-(2-Amino-6-ethylpyrimidin-4-yl)-1H-pyrrolo[2,3-b]pyridin-5-yl]pyrazol-1-yl}-1-(4-methylpiperazin-1-yl)ethanone], the IC50 in experiment [1] is 10 to 1000 nM; in experiment [2], 10 to 20 µM.

Regarding `CCc1cc(-c2c[nH]c3ncc(-c4cnn(CC(=O)NC5CCN(C)CC5)c4)cc23)nc(N)n1` [Compound A30, 2-{4-[3-(2-Amino-6-ethylpyrimidin-4-yl)-1H-pyrrolo[2,3-b]pyridin-5-yl]pyrazol-1-yl}-N-(1-methylpiperidin-4-yl)acetamide], the IC50 lay in the range of 10 to 1000 nM in experiment [1] and 10 to 20 µM in experiment [2].

`CCc1cc(-c2c[nH]c3ncc(-c4cnn(CC(=O)O)c4)cc23)nc(N)n1` [Compound A31, {4-[3-(2-Amino-6-ethylpyrimidin-4-yl)-1H-pyrrolo[2,3-b]pyridin-5-yl]pyrazol-1-yl}acetylic acid]: the IC50 in experiment [1] was 10 to 1000 nM; in experiment [2] it was 10 to 20 µM.

As to `Nc1nc(CCCCO)cc(-c2c[nH]c3ncccc23)n1` [Compound A45, 4-[2-Amino-6-(1H-pyrrolo[2,3-b]pyridin-3-yl)pyrimidin-4-yl]butan-1-ol], in experiment [1], the IC50 was in the range of 1000 to 10000 nM.

The compound `CCc1cc(-c2c[nH]c3ncc(-c4cnn(C(C)C)c4)cc23)nc(NC)n1` [Compound A60, {4-Ethyl-6-[5-(1-isopropyl-1H-pyrazol-4-yl)-1H-pyrrolo[2,3-b]pyridin-3-yl]-pyrimidin-2-yl}methylamine] had an IC50 in experiment [1] of 10 to 1000 nM.

`CCc1cc(-c2c[nH]c3ncc(-c4cnn(CCN(C)C)c4)cc23)nc(NC)n1` [Compound A61, (4-{5-[1-(2-Dimethylaminoethyl)-1H-pyrazol-4-yl]-1H-pyrrolo[2,3-b]pyridin-3-yl}-6-ethylpyrimidin-2-yl)methylamine]: the IC50 in experiment [1] fell in the range of 10 to 1000 nM.

Turning to `CCc1cc(-c2c[nH]c3ncc(-c4cn[nH]c4)cc23)nc(NC)n1` [Compound A62, {4-Ethyl-6-[5-(1H-pyrazol-4-yl)-1H-pyrrolo[2,3-b]pyridin-3-yl]pyrimidin-2-yl}-methylamine], in experiment [1], the half-maximal inhibitory concentration (IC50) lay within 10 to 1000 nM.

Compound `CCc1cc(-c2c[nH]c3ncc(-c4cnn(C)c4)cc23)nc(NC)n1` [Compound A63, {4-Ethyl-6-[5-(1-methyl-1H-pyrazol-4-yl)-1H-pyrrolo[2,3-b]pyridin-3-yl]-pyrimidin-2-yl}methylamine] showed an IC50 in experiment [1] of 10 to 1000 nM.

On to `CCc1cc(-c2c[nH]c3ncc(-c4cnn(C5CCNCC5)c4)cc23)nc(NC)n1` [Compound A64, {4-Ethyl-6-[5-(1-piperidin-4-yl-1H-pyrazol-4-yl)-1H-pyrrolo[2,3-b]pyridin-3-yl]pyrimidin-2-yl}methylamine], for which, in experiment [1], the IC50 fell in the range of 10 to 1000 nM.

Regarding `CCc1cc(-c2c[nH]c3ncc(-c4cnn(CC(=O)N5CCCCC5)c4)cc23)nc(NC)n1` [Compound A65, 2-{4-[3-(6-Ethyl-2-methylaminopyrimidin-4-yl)-1H-pyrrolo[2,3-b]pyridin-5-yl]-pyrazol-1-yl}-1-piperidin-1-ylethanone], the IC50 in experiment [1] is 10 to 1000 nM.

In the case of `CCc1cc(-c2c[nH]c3ncc(-c4cnn(CC(=O)N5CCCC5)c4)cc23)nc(NC)n1` [Compound A66, 2-{4-[3-(6-Ethyl-2-methylaminopyrimidin-4-yl)-1H-pyrrolo[2,3-b]pyridin-5-yl]-pyrazol-1-yl}-1-pyrrolidin-1-ylethanone], in experiment [1], the IC50 lay in the range of 10 to 1000 nM.

In turn, `CCCCc1cc(-c2c[nH]c3ncc(-c4cnn(CCO)c4)cc23)nc(NC)n1` [Compound A67, 2-{4-[3-(6-Butyl-2-methylaminopyrimidin-4-yl)-1H-pyrrolo[2,3-b]pyridin-5-yl]-pyrazol-1-yl}ethanol] came in with an IC50 in experiment [1] of 10 to 1000 nM.

As for `CCc1cc(-c2c[nH]c3ncc(-c4cnn(CCO)c4)cc23)nc(NC)n1` [Compound A68, 2-{4-[3-(6-Ethyl-2-methylaminopyrimidin-4-yl)-1H-pyrrolo[2,3-b]pyridin-5-yl]-pyrazol-1-yl}ethanol], the IC50 in experiment [1] lay within 10 to 1000 nM.

Turning to `CCCCc1cc(-c2c[nH]c3ncc(-c4cnn(C5CCNCC5)c4)cc23)nc(NC)n1` [Compound A70, {4-Butyl-6-[5-(1-piperidin-4-yl-1H-pyrazol-4-yl)-1H-pyrrolo[2,3-b]pyridin-3-yl]pyrimidin-2-yl}methylamine], the IC50 in experiment [1] fell in the range of 10 to 1000 nM.

Regarding `CCCCc1cc(-c2c[nH]c3ncc(-c4cnn(C5CCN(C)CC5)c4)cc23)nc(NC)n1` [Compound A71, (4-Butyl-6-{5-[1-(1-methylpiperidin-4-yl)-1H-pyrazol-4-yl]-1H-pyrrolo[2,3-b]-pyridin-3-yl}pyrimidin-2-yl)methylamine], the IC50 in experiment [1] lay in the range of 10 to 1000 nM.

In experiment [1], `CCc1cc(-c2c[nH]c3ncc(-c4cnn(C(C)C(=O)Nc5ccc6[nH]ccc6c5)c4)cc23)nc(NC)n1` (stereo not drawn) [Compound A72, 2-{4-[3-(6-Ethyl-2-methylaminopyrimidin-4-yl)-1H-pyrrolo[2,3-b]pyridin-5-yl]-pyrazol-1-yl}-N-(1H-indol-5-yl)propionamide] gave an IC50 of 10 to 1000 nM.

As to `CCc1cc(-c2c[nH]c3ncc(-c4cnn(CC(=O)N5CCCc6ccccc65)c4)cc23)nc(NC)n1` [Compound A73, 1-(3,4-Dihydro-2H-quinolin-1-yl)-2-{4-[3-(6-ethyl-2-methylaminopyrimidin-4-yl)-1H-pyrrolo[2,3-b]pyridin-5-yl]pyrazol-1-yl}ethanone], the IC50 in experiment [1] lay in the range of 10 to 1000 nM.

Take `COc1nc(Cc2ccccc2)cc(-c2c[nH]c3ncc(-c4cnn(C(C)C)c4)cc23)n1` [Compound A74, 3-(6-Benzyl-2-methoxypyrimidin-4-yl)-5-(1-isopropyl-1H-pyrazol-4-yl)-1H-pyrrolo[2,3-b]pyridine]: the IC50 in experiment [1] fell in the range of 1000 to 10000 nM.

With `CCc1cc(-c2c[nH]c3ncc(-c4cnn(C(C)C)c4)cc23)nc(OC)n1` [Compound A75, 3-(6-Ethyl-2-methoxypyrimidin-4-yl)-5-(1-isopropyl-1H-pyrazol-4-yl)-1H-pyrrolo[2,3-b]pyridine], in experiment [1], the IC50 lay within 10 to 1000 nM.

Turning to `Nc1nc(CCC(=O)N2CCOCC2)cc(-c2c[nH]c3ncccc23)n1` [Compound A82, 3-[2-Amino-6-(1H-pyrrolo[2,3-b]pyridin-3-yl)pyrimidin-4-yl]-1-morpholin-4-ylpropan-1-one], in experiment [1], the IC50 was 1000 to 10000 nM.

`CN(C)CCNC(=O)CCc1cc(-c2c[nH]c3ncccc23)nc(N)n1` [Compound A83, 3-[2-Amino-6-(1H-pyrrolo[2,3-b]pyridin-3-yl)pyrimidin-4-yl]-N-(2-dimethylaminoethyl)propionamide] displayed an IC50 in experiment [1] of 1000 to 10000 nM.

`CC(C)Cn1cc(-c2cnc3[nH]cc(-c4cc(CCCN)nc(N)n4)c3c2)cn1` [Compound A84, 4-(3-Aminopropyl)-6-[5-(1-isobutyl-1H-pyrazol-4-yl)-1H-pyrrolo[2,3-b]pyridin-3-yl]pyrimidin-2-ylamine] returned an IC50 in experiment [1] of 10 to 1000 nM.
